Here are results for 11 molecules from ChEMBL document CHEMBL2311294, “Design, synthesis and bioevalution of novel benzamides derivatives as HDAC inhibitors” (Bioorg Med Chem Lett, 2013).

pIC50: −log10 of the molar value.

In data set [1] the test system is A549. As to the kind of experiment: cells. The conditions noted are these: Homo sapiens, A549, 72 h.
Description: Cytotoxicity against human A549 cells after 72 hrs by MTT assay
A further data set concerns the target Histone deacetylase 1 (Homo sapiens, UniProt Q13547). The data set can be described thus: Inhibition of HDAC1 (unknown origin).
Data set [2] deals with MCF7. As to the kind of experiment: cells. The conditions noted are these: Homo sapiens, MCF7, 72 h.
Description: Cytotoxicity against human MCF7 cells after 72 hrs by MTT assay
A further data set deals with HCT-116. As to the kind of experiment: cells. To be noted: Homo sapiens, HCT-116, 72 h.
The subject of data set [3] is MCF7. The data set can be described thus: Ratio of MGCD0103 IC50 to compound IC50 for human MCF7 cells. The data set is classed as functional.
Data set [4] can be described thus: Terminal half life in Sprague-Dawley rat at 25 mg/kg, po. More on the design: dose 25 mg/kg, route oral. The conditions noted are these: in vivo, read-out: beta t1/2 (converted). In kind it is ADME, organism-based.
Data set [5] can be described thus: Tmax in Sprague-Dawley rat at 25 mg/kg, po. In kind it is ADME, organism-based. To be noted: in vivo. Also on record: dose 25 mg/kg, route oral.
Data set [6] is described as follows: Oral bioavailability in Sprague-Dawley rat at 25 mg/kg. To be noted: in vivo. The data set is classed as ADME, organism-based.
Data set [7] deals with A549. As to the kind of experiment: Ratio of MGCD0103 IC50 to compound IC50 for human A549 cells. In kind it is functional.
Data set [8] in a line: AUC infinity in Sprague-Dawley rat at 25 mg/kg, po. In kind it is ADME, organism-based. More on the design: time infinity, dose 25 mg/kg, route oral. To be noted: plasma.
A short description of data set [9]: AUClast in Sprague-Dawley rat at 25 mg/kg, po. To be noted: plasma.
Data set [10] can be described thus: Terminal half life in Sprague-Dawley rat at 5 mg/kg, iv. In kind it is ADME, organism-based. More on the design: dose 5 mg/kg, route intravenous. To be noted: in vivo, read-out: beta t1/2 (converted).

Sequence of Histone deacetylase 1 (Q13547 whole entry): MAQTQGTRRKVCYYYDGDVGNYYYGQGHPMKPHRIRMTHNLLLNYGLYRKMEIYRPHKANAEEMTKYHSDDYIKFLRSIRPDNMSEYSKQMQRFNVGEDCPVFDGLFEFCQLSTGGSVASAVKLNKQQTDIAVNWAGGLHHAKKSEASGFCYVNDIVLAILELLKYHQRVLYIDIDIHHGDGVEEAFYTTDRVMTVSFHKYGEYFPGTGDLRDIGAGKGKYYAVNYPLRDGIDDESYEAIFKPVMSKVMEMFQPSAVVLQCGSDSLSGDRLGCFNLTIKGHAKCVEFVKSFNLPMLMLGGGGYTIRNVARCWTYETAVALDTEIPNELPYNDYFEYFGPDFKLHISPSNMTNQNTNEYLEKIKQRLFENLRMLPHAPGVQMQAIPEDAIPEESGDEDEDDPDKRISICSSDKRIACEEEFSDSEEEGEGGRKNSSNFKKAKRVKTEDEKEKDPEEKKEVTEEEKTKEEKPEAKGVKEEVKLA

Consider `Nc1ccccc1NC(=O)c1ccc(CNc2nccc(-c3cnc4cnccn34)n2)cc1`, for which the pIC50 was 6.29 in the data set on A549 [1], 6.96 at Histone deacetylase 1, 5.66 in the data set with MCF7 [2] and 6.67 in the data set on HCT-116.

On to `Cc1nc2ccccn2c1-c1ccnc(NCc2ccc(C(=O)Nc3ccccc3N)cc2)n1`, for which the pIC50 with A549 [1] was 6.36; against Histone deacetylase 1, 6.97; in the data set on MCF7 [2], 5.68; with HCT-116 it was 6.69.

`Cc1nc2ncccn2c1-c1ccnc(NCc2ccc(C(=O)Nc3ccccc3N)cc2)n1`: the pIC50 in the data set with A549 [1] was 6.07; against Histone deacetylase 1, 6.90; in the data set with MCF7 [2] it was 5.39; in the data set with HCT-116, 6.72.

`Cc1nc2cnccn2c1-c1ccnc(NCc2ccc(C(=O)Nc3ccccc3N)cc2)n1`: the pIC50 in the data set on A549 [1] was 6.16; at Histone deacetylase 1, 7.01; in the data set with MCF7 [2], 5.43; in the data set with HCT-116 it was 6.58.

Take `Cc1nc2ccccn2c1-c1ccnc(NCCc2ccc(C(=O)Nc3ccccc3N)cc2)n1`: the pIC50 in the data set on A549 [1] is 6.07; against Histone deacetylase 1 it was 6.88; in the data set on MCF7 [2], 5.39; in the data set with HCT-116, 6.52.

As to `Nc1ccccc1NC(=O)c1ccc(CCNc2nccc(-c3cnc4ncccn34)n2)cc1`, the negative logarithm of the IC50 (pIC50) was 6.14 with A549 [1], 6.81 on Histone deacetylase 1, 5.76 in the data set with MCF7 [2] and 6.59 with HCT-116.

As to `Cc1nc2ccccn2c1-c1ccnc(NCc2ccc(C(=O)Nc3cc(F)ccc3N)cc2)n1`, the negative logarithm of the IC50 (pIC50) was 6.75 with A549 [1], 7.01 against Histone deacetylase 1, 6.00 with MCF7 [2] and 6.57 with HCT-116.

Turning to `Cc1nc2ccccn2c1-c1ccnc(NCc2ccc(C(=O)Nc3ccc(F)cc3N)cc2)n1`, the negative-log IC50 (pIC50) was 6.19 in the data set with A549 [1], 6.87 on Histone deacetylase 1, 5.62 in the data set with MCF7 [2] and 6.61 with HCT-116.

In the case of `Cc1nc2ccc(Br)cn2c1-c1ccnc(NCc2ccc(C(=O)Nc3ccccc3N)cc2)n1`, the negative-log IC50 (pIC50) with A549 [1] is 6.30; on Histone deacetylase 1, 6.90; with MCF7 [2], 5.63; in the data set with HCT-116, 6.52.

Take `Nc1ccccc1NC(=O)c1ccc(CNc2nccc(-c3cnc4ccccn34)n2)cc1`: the results for the “Ratio IC50” value in the data set with MCF7 [3] and in the data set with A549 [7] were 7 and 11.6, respectively. Moreover, the half-life in data set [4] is 4.58 h; in data set [10] it was 1.73 h. Further, the time of peak concentration (Tmax) in [5] was determined as 4.98 min. The molecule further showed a bioavailability in data set [6] of 81%. In addition, the negative logarithm of the IC50 (pIC50) in the data set on A549 [1] is 6.96; against Histone deacetylase 1, 7.28; with MCF7 [2], 6.18; in the data set with HCT-116, 7.09. Moreover, in data set [8], the AUC(0-inf) is 72300 ng·h/mL. The same molecule returned an AUC(0-t) in [9] of 71900 ng·h/mL.

As to `Nc1ccccc1NC(=O)c1ccc(CNc2nccc(-c3cnc4ncccn34)n2)cc1`, the pIC50 is 6.37 in the data set on A549 [1], 7.46 on Histone deacetylase 1, 6.07 in the data set with MCF7 [2] and 6.74 in the data set on HCT-116.

As usually defined, the pIC50 is the IC50 on a negative log10 scale, so that one unit is a factor of ten. Higher therefore signals a small IC50. One may read the Tmax as the time from dosing to the highest level. As usually defined, the bioavailability is the share of a dose that reaches the circulation, judged against a reference dose that is usually intravenous. A low value points to little systemic uptake. For orientation: AUC(0-inf) means the area under the concentration-time curve extrapolated to infinity. One may read the AUC(0-t) as the area under the concentration-time curve up to a stated or last time point.
